# Measured values: ChEMBL document CHEMBL1250486, “Synthesis and evaluation of fatty acyl ester derivatives of cytarabine as anti-leukemia agents” (2010)
# The source made the active and inactive calls. No cut-off for these calls is given here.
# Key:
# [1] = system: CCRF-CEM; assay: Antiproliferative activity against human CCRF-CEM cells at 1 uM after 96 hrs; assay type: functional
# [2] = system: CCRF-CEM; assay: Antiproliferative activity against human CCRF-CEM cells at 1 uM after 24 hrs; assay type: functional, cell-based
SMILES,Activity [1],Activity [2]
CCSCCCCCCCCCCCC(=O)OC[C@H]1O[C@@H](n2ccc(N)nc2=O)[C@@H](O)[C@@H]1O,inactive,
CCCCCCCCCCCCCC(=O)OC[C@H]1O[C@@H](n2ccc(N)nc2=O)[C@@H](OC(=O)CCCCCCCCCCCCC)[C@@H]1O,76%,Active
CCSCCCCCCCCCCCC(=O)O[C@H]1[C@H](O)[C@@H](CO)O[C@H]1n1ccc(N)nc1=O,36%,Active
CCCCCCCCCCCCCC(=O)O[C@H]1[C@H](O)[C@@H](CO)O[C@H]1n1ccc(N)nc1=O,36%,Active
CCCCCCCCCCCCCC(=O)OC[C@H]1O[C@@H](n2ccc(N)nc2=O)[C@@H](O)[C@@H]1O,inactive,
